Experimental data: ChEMBL document CHEMBL1156714, “Microwave induced synthesis of novel 8,9-dihydro-7H-pyrimido[4,5-b][1,4]diazepines as potential antitumor agents” (2008)
Calls of active or inactive are those of the source. No cut-off for these calls is given here.

What was measured:
HCT-15 = test: Growth inhibition of human HCT15 cells after 48 hrs by SRB assay; format: functional; conditions: HCT-15, 48 h; for CC50: read-out: LC50 (the source's name)
HCT-116 = test: Growth inhibition of human HCT116 cells after 48 hrs by SRB assay; format: functional; conditions: HCT-116, 48 h; for CC50: read-out: LC50 (the source's name)
UO-31 = test: Growth inhibition of human UO31 cells after 48 hrs by SRB assay; format: functional; conditions: UO-31, 48 h; for CC50: read-out: LC50 (the source's name)
SR = test: Growth inhibition of human SR cells after 48 hrs by SRB assay; format: functional
Hs-578T = test: Growth inhibition of human HS578T cells after 48 hrs by SRB assay; format: functional; conditions: for CC50: read-out: LC50 (the source's name)
NCI-60 = test: Growth inhibition of human NCI-60 cells at 1.0 uM; format: functional, cell-based
RPMI-8226 = test: Growth inhibition of human RPMI8226 cells after 48 hrs by SRB assay; format: functional; conditions: RPMI-8226, 48 h; for CC50: read-out: LC50 (the source's name)
[1] = Growth inhibition of human HL60(TB) cells after 48 hrs by SRB assay; format: functional, HL-60(TB)
BT-549 = test: Growth inhibition of human BT549 cells after 48 hrs by SRB assay; format: functional; conditions: BT-549, 48 h
NCI-H522 = test: Growth inhibition of human NCI-H522 cells after 48 hrs by SRB assay; format: functional; conditions: NCI-H522, 48 h; for CC50: read-out: LC50 (the source's name)
IGROV-1 = test: Growth inhibition of human IGROV1 cells after 48 hrs by SRB assay; format: functional; conditions: IGROV-1, 48 h; for CC50: read-out: LC50 (the source's name)
RXF 393 [2] = test: Growth inhibition of human RXF393 cells after 48 hrs by SRB assay; format: functional; conditions: RXF 393, 48 h
[3] = Growth inhibition of human […] cells after 48 hrs by SRB assay; format: functional
HOP-62 = test: Growth inhibition of human HOP62 cells after 48 hrs by SRB assay; format: functional; conditions: HOP-62, 48 h
COLO 205 = test: Growth inhibition of human COLO205 cells after 48 hrs by SRB assay; format: functional; conditions: COLO 205, 48 h
ACHN = test: Growth inhibition of human ACHN cells after 48 hrs by SRB assay; format: functional
MOLT-4 = test: Growth inhibition of human MOLT4 cells after 48 hrs by SRB assay; format: functional; conditions: MOLT-4, 48 h
NCI/ADR-RES = test: Growth inhibition of human NCI/ADR-RES cells after 48 hrs by SRB assay; format: functional
NCI-H322M = test: Growth inhibition of human NCI-H322M cells after 48 hrs by SRB assay; format: functional
[4] = Growth inhibition of human OVACR3 cells after 48 hrs by SRB assay; format: functional
TK-10 = test: Growth inhibition of human TK10 cells after 48 hrs by SRB assay; format: functional; conditions: TK-10, 48 h
RXF 393 [5] = test: Growth inhibition of human […] cells after 48 hrs by SRB assay; format: functional; conditions: RXF 393, 48 h
HCC 2998 = test: Growth inhibition of human HCC2998 cells after 48 hrs by SRB assay; format: functional; conditions: HCC 2998, 48 h
[6] = Growth inhibition of human OVACR4 cells after 48 hrs by SRB assay; format: functional
A549 = test: Growth inhibition of human A549 cells after 48 hrs by SRB assay; format: functional; conditions: A549, 48 h
A498 = test: Growth inhibition of human A498 cells after 48 hrs by SRB assay; format: functional; conditions: A498, 48 h
SF-295 = test: Growth inhibition of human SF295 cells after 48 hrs by SRB assay; format: functional; conditions: SF-295, 48 h
LOX IMVI = test: Growth inhibition of human LOX IMVI cells after 48 hrs by SRB assay; format: functional
U-251 = test: Growth inhibition of human U251 cells after 48 hrs by SRB assay; format: functional; conditions: U-251, 48 h
SNB-75 = test: Growth inhibition of human SNB75 cells after 48 hrs by SRB assay; format: functional; conditions: SNB-75, 48 h
HT-29 = test: Growth inhibition of human HT29 cells after 48 hrs by SRB assay; format: functional; conditions: HT-29, 48 h
SW-620 = test: Growth inhibition of human SW620 cells after 48 hrs by SRB assay; format: functional; conditions: SW-620, 48 h
SF-268 = test: Growth inhibition of human SF268 cells after 48 hrs by SRB assay; format: functional; conditions: SF-268, 48 h
DU-145 = test: Growth inhibition of human DU145 cells after 48 hrs by SRB assay; format: functional; conditions: DU-145, 48 h
MDA-MB-231 = test: Growth inhibition of human MDA-MB-231 cells after 48 hrs by SRB assay; format: functional; conditions: MDA-MB-231, 48 h
K562 = test: Growth inhibition of human K562 cells after 48 hrs by SRB assay; format: functional; conditions: K562, 48 h
[7] = Growth inhibition of human OVACR5 cells after 48 hrs by SRB assay; format: functional
MDA-MB-468 = test: Growth inhibition of human MDA-MB-468 cells after 48 hrs by SRB assay; format: functional; conditions: MDA-MB-468, 48 h
PC-3 = test: Growth inhibition of human PC3 cells after 48 hrs by SRB assay; format: functional; conditions: PC-3, 48 h
KM12 = test: Growth inhibition of human KM12 cells after 48 hrs by SRB assay; format: functional; conditions: KM12, 48 h
MCF7 = test: Growth inhibition of human MCF7 cells after 48 hrs by SRB assay; format: functional; conditions: MCF7, 48 h
[8] = read-out: LC50 (the source's name)

Nc1ncnc2c1N=C(c1ccc3c(c1)OCO3)CC(c1ccc([N+](=O)[O-])cc1)N2 (racemic)
GI50 (HCT-15): 9.55 µM | CC50 (HCT-15): > 100 µM | GI50 (HCT-116): 18.2 µM | CC50 (HCT-116): > 100 µM | GI50 (UO-31): 18.1 µM | CC50 (UO-31): > 100 µM | GI50 (SR): 2.37 µM | LC50 (concentration killing 50% of cells) (SR): > 100 µM | GI50 (Hs-578T): 9.18 µM | CC50 (Hs-578T): > 100 µM | Activity (NCI-60): Active | GI50 (RPMI-8226): 0.19 µM | CC50 (RPMI-8226): > 100 µM | LC100 [1]: >100 µM | GI50 ([1]; Homo sapiens, HL-60, 48 h): 13.1 µM | GI50 (BT-549): 1.68 µM | CC50 (BT-549; [8]): > 100 µM | GI50 (NCI-H522): 6.78 µM | CC50 (NCI-H522): > 100 µM | GI50 (IGROV-1): 0.068 µM | CC50 (IGROV-1): 25.5 µM | GI50 (RXF 393 [2]): 7.19 µM | CC50 (RXF 393 [2]; [8]): > 100 µM

Nc1ncnc2c1N=C(c1ccc3c(c1)OCO3)CC(c1ccc(Cl)cc1)N2 (racemic)
GI50 [3]: 4.66 µM | CC50 [3, 8]: > 100 µM | GI50 (HOP-62): 16.6 µM | CC50 (HOP-62; [8]): > 100 µM | GI50 (COLO 205): 15 µM | CC50 (COLO 205; [8]): > 100 µM | GI50 (ACHN): 8.25 µM | LC50 (lethal concentration 50%) (ACHN): > 100 µM | GI50 (MOLT-4): 5.85 µM | CC50 (MOLT-4; [8]): > 100 µM | GI50 (NCI/ADR-RES): 5.35 µM | CC50 (NCI/ADR-RES; [8]): > 100 µM | GI50 (NCI-H322M): 16.9 µM | CC50 (NCI-H322M; [8]): > 100 µM | GI50 (HCT-15): 3.14 µM | CC50 (HCT-15): 55.2 µM | GI50 [4]: 3.71 µM | LC50 [4]: 83 µM | GI50 (TK-10): 8.23 µM | CC50 (TK-10; [8]): > 100 µM | GI50 (RXF 393 [5]): 2.51 µM | CC50 (RXF 393 [5]; [8]): 59.3 µM | GI50 (HCT-116): 10.7 µM | CC50 (HCT-116): 47.5 µM | GI50 (HCC 2998): 5.88 µM | LC50 (concentration killing 50% of cells) (HCC 2998): > 100 µM | GI50 [6]: 18.3 µM | LC50 [6]: > 100 µM | GI50 (UO-31): 7.48 µM | CC50 (UO-31): > 100 µM | GI50 (A549): 11.6 µM | LC50 (A549): 78.3 µM | GI50 (A498): 5.94 µM | LC50 (A498): > 100 µM | GI50 (SF-295): 14.7 µM | LC50 (SF-295): > 100 µM | GI50 (LOX IMVI): 10.1 µM | CC50 (LOX IMVI; [8]): > 100 µM | GI50 (U-251): 6.19 µM | CC50 (U-251; [8]): 78.9 µM | GI50 (SNB-75): 5.22 µM | CC50 (SNB-75; [8]): > 100 µM | GI50 (Hs-578T): 1.07 µM | CC50 (Hs-578T): > 100 µM | Activity (NCI-60): Active | GI50 (HT-29): 3.81 µM | CC50 (HT-29; [8]): > 100 µM | GI50 (SW-620): 4.91 µM | CC50 (SW-620; [8]): > 100 µM | GI50 (SF-268): 8.52 µM | LC50 (50% lethal concentration) (SF-268): > 100 µM | GI50 (DU-145): 16.8 µM | CC50 (DU-145; [8]): 65.9 µM | GI50 (RPMI-8226): 1.5 µM | CC50 (RPMI-8226): > 100 µM | GI50 (MDA-MB-231): 2.7 µM | CC50 (MDA-MB-231; [8]): 55.6 µM | GI50 ([1]; Homo sapiens, HL-60, 48 h): 5.37 µM | CC50 ([1]; Homo sapiens, HL-60, 48 h, read-out: LC50 (the source's name)): > 100 µM | GI50 (K562): 4.27 µM | LC50 (K562): > 100 µM | GI50 [7]: 18.3 µM | CC50 [7, 8]: > 100 µM | GI50 (MDA-MB-468): 10.1 µM | CC50 (MDA-MB-468; [8]): > 100 µM | GI50 (PC-3): 9.06 µM | CC50 (PC-3; [8]): 50.8 µM | GI50 (NCI-H522): 2.37 µM | CC50 (NCI-H522): > 100 µM | GI50 (KM12): 2.03 µM | CC50 (KM12; [8]): > 100 µM | GI50 (IGROV-1): 0.35 µM | CC50 (IGROV-1): 42.8 µM | GI50 (MCF7): 3.61 µM | LC50 (MCF7): > 100 µM

COc1ccc(C2=Nc3c(N)ncnc3NC(c3ccc4c(c3)OCO4)C2)cc1 (racemic)
Activity (NCI-60): inactive

COc1ccc(C2CC(c3ccc4c(c3)OCO4)=Nc3c(N)ncnc3N2)cc1 (racemic)
Activity (NCI-60): inactive

Nc1ncnc2c1N=C(c1ccc(Cl)cc1)CC(c1ccc3c(c1)OCO3)N2 (racemic)
Activity (NCI-60): inactive

Nc1ncnc2c1N=C(c1ccc([N+](=O)[O-])cc1)CC(c1ccc3c(c1)OCO3)N2 (racemic)
Activity (NCI-60): inactive
